Legend:
TLR7 = molecular target: T1, TLR7 (Homo sapiens, UniProt Q9NYK1); experiment: TLR7 human PBMC cell-based assay (antagonist, GS-986 stimulated cytokine release); conditions: human PBMCs; TLR7 agonist GS-986 400 nM, 6 hours; cytokines (IL-6 and IFNα) in supernatant; read-out: TLR-7 EC50
T1 construct: Human peripheral blood mononuclear cells (PBMCs) consist of lymphocytes, monocytes and dendritic cells that express TLR7, TLR8 and TLR9; endogenous in cells; host or cells: cryopreserved human PBMCs from healthy donors
T1 sequence (Q9NYK1 27-1049): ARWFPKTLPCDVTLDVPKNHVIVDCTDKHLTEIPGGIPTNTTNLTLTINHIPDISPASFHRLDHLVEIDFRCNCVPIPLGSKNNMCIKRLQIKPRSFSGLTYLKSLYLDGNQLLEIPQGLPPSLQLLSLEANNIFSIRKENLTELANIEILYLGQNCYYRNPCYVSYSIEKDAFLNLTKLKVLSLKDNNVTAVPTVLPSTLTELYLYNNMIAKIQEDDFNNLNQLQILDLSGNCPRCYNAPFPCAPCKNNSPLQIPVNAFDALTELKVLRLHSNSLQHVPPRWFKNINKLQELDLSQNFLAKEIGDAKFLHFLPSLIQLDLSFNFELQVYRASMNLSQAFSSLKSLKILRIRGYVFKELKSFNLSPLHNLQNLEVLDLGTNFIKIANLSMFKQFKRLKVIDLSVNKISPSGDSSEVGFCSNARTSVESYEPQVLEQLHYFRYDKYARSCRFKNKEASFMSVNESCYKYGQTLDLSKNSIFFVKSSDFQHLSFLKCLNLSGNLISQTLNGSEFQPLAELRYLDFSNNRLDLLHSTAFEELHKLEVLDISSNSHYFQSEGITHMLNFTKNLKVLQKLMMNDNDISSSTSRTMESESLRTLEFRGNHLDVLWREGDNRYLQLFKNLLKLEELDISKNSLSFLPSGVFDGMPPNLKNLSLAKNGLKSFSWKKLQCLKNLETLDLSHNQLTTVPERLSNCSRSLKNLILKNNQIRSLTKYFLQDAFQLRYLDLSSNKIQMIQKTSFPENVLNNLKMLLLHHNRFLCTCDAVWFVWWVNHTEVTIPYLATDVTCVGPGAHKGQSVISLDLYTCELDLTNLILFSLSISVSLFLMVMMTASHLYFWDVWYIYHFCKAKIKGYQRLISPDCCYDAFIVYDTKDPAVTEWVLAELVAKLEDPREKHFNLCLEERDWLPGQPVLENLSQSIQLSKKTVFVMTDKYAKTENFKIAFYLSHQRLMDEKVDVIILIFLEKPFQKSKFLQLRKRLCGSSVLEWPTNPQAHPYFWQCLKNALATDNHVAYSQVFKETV
Outline: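 EC50 derived by sigmoidal fitting of IL-6 and IFNα levels, quantified by electrochemiluminescence in supernatants of human PBMCs given 400 nM GS-986 for 6 h. Cells (100,000/well in RPMI-1640, 10% FBS) had received test antagonist 1 h beforehand, 10 doses in quadruplicate, at 37 °C.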

TLR8 = molecular target: T2, TLR8 (Homo sapiens, UniProt Q9NR97); experiment: TLR8 human PBMC cell-based assay (antagonist, Compound A stimulated cytokine release); conditions: human PBMCs; TLR8 agonist Compound A 800 nM, 6 hours; cytokines (TNFa and IL 12p40) in supernatant; read-out: TLR-8 EC50
T2 construct: Human peripheral blood mononuclear cells (PBMCs) consist of lymphocytes, monocytes and dendritic cells that express TLR7, TLR8 and TLR9; endogenous in cells; host or cells: cryopreserved human PBMCs from healthy donors
T2 sequence (Q9NR97 27-1041): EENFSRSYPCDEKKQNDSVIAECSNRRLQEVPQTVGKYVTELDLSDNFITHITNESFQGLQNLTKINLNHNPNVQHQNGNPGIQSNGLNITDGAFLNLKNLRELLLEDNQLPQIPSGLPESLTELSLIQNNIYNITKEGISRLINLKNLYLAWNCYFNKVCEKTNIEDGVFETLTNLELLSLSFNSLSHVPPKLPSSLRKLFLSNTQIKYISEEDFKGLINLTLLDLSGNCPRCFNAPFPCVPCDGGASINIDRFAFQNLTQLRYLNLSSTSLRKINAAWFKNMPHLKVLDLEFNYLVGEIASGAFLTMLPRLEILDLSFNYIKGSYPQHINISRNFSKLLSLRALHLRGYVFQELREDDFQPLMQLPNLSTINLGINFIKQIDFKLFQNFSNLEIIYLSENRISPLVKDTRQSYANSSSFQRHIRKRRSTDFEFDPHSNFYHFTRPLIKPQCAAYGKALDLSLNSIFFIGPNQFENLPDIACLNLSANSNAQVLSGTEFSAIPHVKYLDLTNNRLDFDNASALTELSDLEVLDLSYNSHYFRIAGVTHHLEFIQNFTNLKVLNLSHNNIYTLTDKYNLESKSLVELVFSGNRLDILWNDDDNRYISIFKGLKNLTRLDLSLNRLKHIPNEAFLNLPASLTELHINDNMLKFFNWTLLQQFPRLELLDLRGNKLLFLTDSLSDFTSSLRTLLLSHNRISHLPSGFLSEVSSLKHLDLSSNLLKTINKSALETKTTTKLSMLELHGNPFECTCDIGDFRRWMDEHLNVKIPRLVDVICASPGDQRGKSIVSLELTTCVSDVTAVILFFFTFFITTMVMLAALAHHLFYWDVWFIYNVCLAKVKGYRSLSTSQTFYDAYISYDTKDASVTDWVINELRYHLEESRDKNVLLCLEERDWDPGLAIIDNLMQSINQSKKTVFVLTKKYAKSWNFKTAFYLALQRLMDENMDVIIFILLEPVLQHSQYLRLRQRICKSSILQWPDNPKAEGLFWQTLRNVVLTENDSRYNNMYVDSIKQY
Outline: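 Cryopreserved donor PBMCs (100,000/well, RPMI + 10% FBS) were preincubated 1 h with antagonist (10-point dose response, quadruplicate), then stimulated with Compound A (800 nM final) for 6 h at 37 °C. TNFa and IL-12p40 in supernatants were measured by electrochemiluminescence; sigmoidal fits gave EC50.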

Row | EC50 (TLR7) [nM] | EC50 (TLR8) [nM] | Structure (SMILES)
1 | 4.1 | 3.2 | Cc1cc(-c2[nH]c3cc(C4CCN(CCS(C)(=O)=O)CC4)sc3c2C(C)C)cn2ncnc12 [Example 255, 6-isopropyl-5-(8-methyl-[1,2,4]triazolo[1,5-a]pyridin-6-yl)-2-(1-(2-(methylsulfonyl)ethyl)piperidin-4-yl)-4H-thieno[3,2-b]pyrrole]
2 | 0.2 | 1.8 | Cc1cc(-c2[nH]c3cc(C4CCC(N5CCC(F)C5)CC4)sc3c2C(C)C)cn2ncnc12 (centres unmarked) [Example 256, 2-(4-(3-fluoropyrrolidin-1-yl)cyclohexyl)-6-isopropyl-5-(8-methyl-[1,2,4]triazolo[1,5-a]pyridin-6-yl)-4H-thieno[3,2-b]pyrrole]
3 | 0.4 | 9.6 | Cc1cc(-c2[nH]c3cc(C4CCC(N5CCC(O)C5)CC4)sc3c2C(C)C)cn2ncnc12 (centres unmarked) [Example 257]
4 | 2.3 | 11.9 | Cc1cc(-c2[nH]c3cc(C4CCC(N5CCC(OC(F)F)C5)CC4)sc3c2C(C)C)cn2ncnc12 (centres unmarked) [Example 258]
5 | 0.3 | 2 | Cc1cc(-c2[nH]c3cc(C4CCC(N5CC6(COC6)C5)CC4)sc3c2C(C)C)cn2ncnc12 (centres unmarked) [Example 260]
6 | 2.2 | 9.7 | Cc1cc(-c2[nH]c3cc(C4CCC(NC5CC6CC5O6)CC4)sc3c2C(C)C)cn2ncnc12 (centres unmarked) [Example 261]
7 | 0.3 | 6 | Cc1cc(-c2[nH]c3cc(-c4cn(C5CCNCC5)nn4)sc3c2C(C)C)cn2ncnc12 [Example 263, 6-isopropyl-5-(8-methyl-[1,2,4]triazolo[1,5-a]pyridin-6-yl)-2-(1-(piperidin-4-yl)-1H-1,2,3-triazol-4-yl)-4H-thieno[3,2-b]pyrrole]
8 | 1.8 | 1.6 | Cc1cc(-c2[nH]c3cc(-c4cn(C5CCN(CCO)CC5)nn4)sc3c2C(C)C)cn2ncnc12 [Example 264, 2-(4-(4-(6-isopropyl-5-(8-methyl-[1,2,4]triazolo[1,5-a]pyridin-6-yl)-4H-thieno[3,2-b]pyrrol-2-yl)-1H-1,2,3-triazol-1-yl)piperidin-1-yl)ethan-1-ol]
9 | 1.7 | 8.2 | Cc1cc(-c2[nH]c3cc(CN4CCN(C)CC4)sc3c2C(C)C)cn2ncnc12 [Example 265, 6-isopropyl-5-(8-methyl-[1,2,4]triazolo[1,5-a]pyridin-6-yl)-2-((4-methylpiperazin-1-yl)methyl)-4H-thieno[3,2-b]pyrrole]
10 | 2.3 | 1.2 | Cc1c(-c2[nH]c3cc(CN4CCC(C)(O)CC4)sc3c2C(C)C)cn2ncnc2c1C [Example 266]
11 | 37.5 | 4.8 | Cc1c(-c2[nH]c3cc(CN4CCC(O)(C(F)(F)F)CC4)sc3c2C(C)C)cn2ncnc2c1C [Example 267]
12 | 26.5 | 14.7 | Cc1cc(-c2[nH]c3cc(C(=O)N(C)C4CCN(CCC(F)(F)F)CC4)sc3c2C(C)C)cn2ncnc12 [Example 269, 6-isopropyl-N-methyl-5-(8-methyl-[1,2,4]triazolo[1,5-a]pyridin-6-yl)-N-[1-(3,3,3-trifluoropropyl)-4-piperidyl]-4H-thieno[3,2-b]pyrrole-2-carboxamide]
13 | 8.2 | 3 | Cc1cc(-c2[nH]c3cc(CN4CCC(C)(O)CC4)sc3c2C(C)C)cn2ncnc12 [Example 270, 1-((6-Isopropyl-5-(8-methyl-[1,2,4]triazolo[1,5-a]pyridin-6-yl)-4H-thieno[3,2-b]pyrrol-2-yl)methyl)-4-methylpiperidin-4-ol]
14 | 35 | 51.2 | Cc1cc(-c2[nH]c3cc(CN4CC5(C4)CS(=O)(=O)C5)sc3c2C(C)C)cn2ncnc12 [Example 271]
15 | 1.8 | 4.9 | Cc1cc(-c2[nH]c3cc(-c4ccc(N5CCN(C)CC5)c(F)c4)sc3c2C(C)C)cn2ncnc12 [Example 272, 2-(3-Fluoro-4-(4-methylpiperazin-1-yl)phenyl)-6-isopropyl-5-(8-methyl-[1,2,4]triazolo[1,5-a]pyridin-6-yl)-4F1-thieno[3,2-b]pyrrole]
16 | 9.8 | 9.7 | Cc1c(-c2[nH]c3cc(C(=O)N(C)[C@@H]4CNC[C@H](C(F)(F)F)C4)sc3c2C(C)C)cn2ncnc2c1C [Example 273, 5-(7,8-dimethyl-[1,2,4]triazolo[1,5-a]pyridin-6-yl)-6-isopropyl-N-methyl-N-((3S,5R)-5-(trifluoromethyl)piperidin-3-yl)-4H-thieno[3,2-b]pyrrole-2-carboxamide]
17 | 360 | 70.7 | CCN1C[C@@H](N(C)C(=O)c2cc3[nH]c(-c4cn5ncnc5c(C)c4C)c(C(C)C)c3s2)C[C@@H](C(F)(F)F)C1 [Example 274, 5-(7,8-dimethyl-[1,2,4]triazolo[1,5-a]pyridin-6-yl)-N-((3S,5R)-1-ethyl-5-(trifluoromethyl)piperidin-3-yl)-6-isopropyl-N-methyl-4H-thieno[3,2-b]pyrrole-2-carboxamide]
18 | 9 | 35.6 | Cc1cc(-c2[nH]c3cc(C(=O)N(C)[C@H]4CNC[C@@H](C(F)(F)F)C4)sc3c2C(C)C)cn2ncnc12 [Example 275]
19 | 2.7 | 16.3 | Cc1cc(-c2[nH]c3cc(C(=O)N(C)[C@@H]4CNC[C@H](C(F)(F)F)C4)sc3c2C(C)C)cn2ncnc12 [Example 276]
20 | 0.4 | 6.1 | Cc1cc(-c2[nH]c3cc(C(=O)C4CCNCC4)sc3c2C(C)C)cn2ncnc12 [Example 277, (6-isopropyl-5-(8-methyl-[1,2,4]triazolo[1,5-a]pyridin-6-yl)-4H-thieno[3,2-b]pyrrol-2-yl)(piperidin-4-yl)methanone]
21 | 2.78 | 0.78 | Cc1c(-c2[nH]c3cc(C4CCN(CC(N)=O)CC4)sc3c2C(C)C)cn2ncnc2c1C [Example 279]
22 | 2.89 | 7.51 | Cc1cc(-c2[nH]c3cc(C4CCC5(CCN(CC(N)=O)C5)C4)sc3c2C(C)C)cn2ncnc12 (centres unmarked) [Example 280]
23 | 0.87 | 4.48 | Cc1cc(-c2[nH]c3cc(C4CCC5CNCCC5C4)sc3c2C(C)C)cn2ncnc12 (centres unmarked) [Example 281]
24 | 1.32 | 11.7 | Cc1cc(-c2[nH]c3cc(C4CC5CCC4CN5)sc3c2C(C)C)cn2ncnc12 (centres unmarked) [Example 282]
25 | 1.37 | 3.47 | Cc1nc2c(C)cc(-c3[nH]c4cc(C5CCN(CC(N)=O)CC5)sc4c3C(C)C)cn2n1 [Example 283]

Source: patent US20240217990A1 (Gilead Sciences, Inc., priority 2021, published 2024)
